Source: publication PMC12687449, “Membrane disruption attenuates agonist potency in prostanoid receptors” (Biochemical Journal, 2025)

What was measured:
[1] = biological target: T1, TP receptor conformation sensor (Homo sapiens, UniProt P21731); experiment: FRET-based TP receptor conformation sensor, single-cell measurements in HEK293 cells; conditions: 1 µM U-46619, reference 8 µM U-46619
T1 sequence (P21731 1-311 limits assumed): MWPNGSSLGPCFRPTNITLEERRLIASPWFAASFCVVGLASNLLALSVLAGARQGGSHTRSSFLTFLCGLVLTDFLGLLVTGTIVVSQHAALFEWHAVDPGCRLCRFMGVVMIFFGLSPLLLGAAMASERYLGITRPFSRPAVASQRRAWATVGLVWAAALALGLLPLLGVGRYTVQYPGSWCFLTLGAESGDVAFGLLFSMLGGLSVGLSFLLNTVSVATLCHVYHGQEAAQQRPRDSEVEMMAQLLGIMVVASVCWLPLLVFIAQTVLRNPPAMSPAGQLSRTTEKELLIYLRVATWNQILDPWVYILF

[2] = biological target: ETB receptor (wildtype) (human) (UniProt P24530)
[3] = biological target: T2, EP2 receptor conformation sensor (Homo sapiens, UniProt P43116, DEL238-250); experiment: FRET-based EP2 receptor conformation sensor, single-cell measurements in HEK293 cells; conditions: saponin-permeabilized cells, 3000 nM PGE2, reference 20 µM PGE2
T2 construct: mT2 insertion and truncation after Q349; expressed in transfected cells
Method: (§1) The cells were washed once with external buffer and subsequently incubated 2 minutes for single-cell FRET measurements or 10 minutes for BRET measurements in 0.05% saponin (AppliChem, Darmstadt, Germany) dissolved in internal buffer. Afterward, the cells were washed five times for single-cell FRET measurements or three times for BRET measurements with internal buffer.
The coverslips loaded with stably transfected HEK293 cells containing either the FFA3 receptor, α2A-AR CAM, or ETB receptor conformation sensors were clamped in an Attofluor^TM cell chamber and were washed once with external buffer. Afterward, they were side by side either permeabilized or directly measured at room temperature by the use of an inverted microscope (Elipse Ti2, Nikon, Düsseldorf, Germany), equipped with a 100× oil immersion objective (Plan Apo λ 100 x/1.45 oil ∞/0.17 WD 0.13, Nikon, Düsseldorf, Germany) and dual excitation and dual emission imaging capabilities. […] The fluorescence emission of mT2 and the respective YFP variant was simultaneously collected by a second beamsplitter (488, Chroma, Bellows Falls, Vermont, U.S.A.) and two emission filters (mT2: 474/27, Chroma; YFP: 544/23, Chroma). […] For all single-cell FRET experiments, cells were prospectively selected based on a continuous plasma-membrane fluorescence rim and appropriate fluorescence distribution to ensure a PM-dominant receptor signal. […]

[4] = biological target: EP4 receptor conformation sensor (Homo sapiens, UniProt P35408); experiment: FRET-based EP4 receptor conformation sensor stably expressed in HEK293 cells (intact, saponin-permeabilized, membrane fragments); format: cell-based
Method: as §1
(§2) HEK293 cells stably expressing the EP4 receptor, IP receptor, or DP2 receptor conformation sensor were seeded on 15 cm Ø dishes and grown until optical confluence. The cells were washed once with Dulbecco’s PBS (Capricorn Scientific GmbH), without Ca & Mg and Phenol Red (phosphate-buffered saline, PBS). After adding 5 ml PBS to the cells, the dish was treated with liquid nitrogen until the solution was visibly frozen. These dishes were stored at −80°C until the measurements were carried out. On the day of the measurement, the dishes were removed from the freezer and stored at room temperature until the buffer solution had thawed. The material was collected with a cell scraper and centrifuged (5000 rpm/5 min). The supernatant was discarded, the pellet containing the membrane fragments was resuspended with external buffer containing 0.1% BSA and seeded on microplates. […]

[5] = biological target: S1P3 receptor (Homo sapiens, UniProt Q99500); experiment: BRET-based G protein activation, wildtype S1P3 receptor + Gαq biosensor in HEK293T cells; format: cell-based
Excerpt: […] Afterward, the cells were washed five times for single-cell FRET measurements or three times for BRET measurements with internal buffer.
Concentration-response curves were fitted in GraphPad Prism 8 using nonlinear regression (log(agonist) vs. response - variable slope (four parameters)) with the hillslope set to 1, the bottom constrained to 0 and the top to 1 using the following equation: […]

[6] = biological target: T3, DP2 receptor conformation sensor (Homo sapiens, UniProt Q9Y5Y4); experiment: FRET-based DP2 receptor conformation sensor, multiple-cell measurements in HEK293 cells or membrane fragments
T3 sequence (Q9Y5Y4 1-231 limits assumed): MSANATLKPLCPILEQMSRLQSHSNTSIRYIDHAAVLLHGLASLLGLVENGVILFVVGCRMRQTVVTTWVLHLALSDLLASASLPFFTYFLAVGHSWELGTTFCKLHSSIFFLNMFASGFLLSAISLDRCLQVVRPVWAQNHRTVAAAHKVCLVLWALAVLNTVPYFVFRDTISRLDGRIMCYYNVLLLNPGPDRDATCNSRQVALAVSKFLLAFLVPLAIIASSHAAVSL
T3 sequence (Q9Y5Y4 248-308 limits assumed): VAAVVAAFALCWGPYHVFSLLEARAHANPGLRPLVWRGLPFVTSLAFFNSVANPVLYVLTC
Method: as §2, with “min).” for “min). The supernatant was discarded, the pellet containing the membrane fragments was resuspended with external buffer containing 0.1% BSA and seeded on microplates.”
Intact HEK293 cells stably expressing the EP4 receptor, IP receptor, or DP2 receptor conformation sensors were counted, adjusted to 100,000–120,000 cells per well, and seeded on poly-L-lysine coated microplates one day before measurement. […]
We used a Spark 20M plate reader (Tecan, Männedorf, Switzerland) for multiple-cell FRET measurements of intact cells or membrane fragments. The cells were measured from the bottom and the donor fluorescent protein (mT2) was excited at 430 nm. First, the cells were measured for the baseline emission ratio. […] The emitted donor fluorescence (mT2) and acceptor fluorescence (eYFP) were recorded at 485 nm and 535 nm, respectively. […]

[7] = biological target: T4, DP2 receptor (Homo sapiens, UniProt Q9Y5Y4); experiment: BRET-based G protein activation, wildtype DP2 receptor + Gαo biosensor in HEK293T cells; format: cell-based
T4 construct: host or cells: HEK293T (transient)
T4 sequence (Q9Y5Y4 1-395): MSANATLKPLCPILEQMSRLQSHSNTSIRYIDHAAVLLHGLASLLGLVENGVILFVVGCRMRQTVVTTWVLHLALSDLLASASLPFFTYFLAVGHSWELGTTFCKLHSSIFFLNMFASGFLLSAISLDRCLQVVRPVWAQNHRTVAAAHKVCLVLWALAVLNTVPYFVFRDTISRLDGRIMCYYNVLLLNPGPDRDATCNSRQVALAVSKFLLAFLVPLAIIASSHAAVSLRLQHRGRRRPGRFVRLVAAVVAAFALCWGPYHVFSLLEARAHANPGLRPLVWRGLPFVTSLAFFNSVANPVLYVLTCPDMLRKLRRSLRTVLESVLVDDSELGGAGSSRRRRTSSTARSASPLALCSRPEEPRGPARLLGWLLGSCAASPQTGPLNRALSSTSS
Method: Two days before BRET measurements were performed, HEK293T cells were transiently transfected with 3 µg of cDNAs containing TP receptor, ETB receptor, DP2 receptor, or S1P3 receptor and 3 µg of cDNAs containing Gβ3-T2A-cpVenus-Gγ9-IRES-Gαq-NLuc or Gβ3-T2A-cpVenus-Gγ9-IRES-Gαo1-NLuc using linear 25 kDa PEI reagent (polyethylenimine, PolyScience Inc., Hirschberg an der Bergstraße, Germany). The ratio between DNA and PEI was 1:3, and 50 µl serum-free DMEM was added per 1 µg DNA. The same amount of serum-free DMEM was also added separately to the PEI solution. DNA-DMEM and PEI-DMEM mixtures were incubated for 5 minutes, followed by incubation of the final mixture for another 10 minutes. […]
Two days before the actual measurement, HEK293T cells were transiently transfected and seeded on microplates. […] The measurements were performed using a Spark 20M plate reader (Tecan) at 37°C. Initially, the cells were measured for the baseline emission ratio. After the baseline measurement, 20 µl of external or internal buffer containing differing concentrations of either U-46619, 4-Ala ET-1, PGD,2 or S1P or external or internal buffer alone were added to the cells and measured. […] The cells were measured from the top and the donor luminescence (NLuc) was recorded at 415 to 470 nm and the acceptor luminescence (cpVenus) at 520 to 590 nm. Data were recorded using SparkControl^TM software. […]

[8] = saponin-permeabilized cells with 1 µM GTP

Sequence of EP4 receptor conformation sensor (P35408 1-332 limits assumed): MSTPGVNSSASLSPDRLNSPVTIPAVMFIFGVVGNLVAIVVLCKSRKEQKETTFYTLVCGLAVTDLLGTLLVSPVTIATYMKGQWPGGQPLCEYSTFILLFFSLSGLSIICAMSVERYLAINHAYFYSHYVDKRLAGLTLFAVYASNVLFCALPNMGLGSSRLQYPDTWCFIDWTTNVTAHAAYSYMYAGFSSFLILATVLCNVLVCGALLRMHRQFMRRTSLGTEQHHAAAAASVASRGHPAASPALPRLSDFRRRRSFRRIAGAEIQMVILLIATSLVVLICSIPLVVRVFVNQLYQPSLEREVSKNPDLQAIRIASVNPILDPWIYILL
Sequence of S1P3 receptor (Q99500 whole entry): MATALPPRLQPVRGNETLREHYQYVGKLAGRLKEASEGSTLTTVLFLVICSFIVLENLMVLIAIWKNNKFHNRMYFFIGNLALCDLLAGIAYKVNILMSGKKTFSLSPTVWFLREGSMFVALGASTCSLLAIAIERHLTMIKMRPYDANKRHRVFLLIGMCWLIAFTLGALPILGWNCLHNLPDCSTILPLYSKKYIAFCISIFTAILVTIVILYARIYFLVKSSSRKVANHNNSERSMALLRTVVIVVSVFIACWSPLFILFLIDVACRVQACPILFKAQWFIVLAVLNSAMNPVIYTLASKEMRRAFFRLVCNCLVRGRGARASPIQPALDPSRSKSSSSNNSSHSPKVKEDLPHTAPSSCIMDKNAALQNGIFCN
T2 sequence (P43116 with tags, fused parts or gaps DEL238-250): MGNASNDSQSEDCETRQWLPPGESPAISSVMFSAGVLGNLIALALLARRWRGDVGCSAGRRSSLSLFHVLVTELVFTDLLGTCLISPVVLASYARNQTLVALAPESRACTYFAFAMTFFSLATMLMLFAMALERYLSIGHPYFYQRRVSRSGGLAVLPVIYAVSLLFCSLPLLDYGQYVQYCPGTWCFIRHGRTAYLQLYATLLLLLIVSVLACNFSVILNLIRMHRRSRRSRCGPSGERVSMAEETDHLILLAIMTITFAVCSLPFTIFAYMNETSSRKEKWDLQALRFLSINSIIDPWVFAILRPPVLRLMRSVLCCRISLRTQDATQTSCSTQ
Sequence of ETB receptor (wildtype) (human) (P24530 27-442): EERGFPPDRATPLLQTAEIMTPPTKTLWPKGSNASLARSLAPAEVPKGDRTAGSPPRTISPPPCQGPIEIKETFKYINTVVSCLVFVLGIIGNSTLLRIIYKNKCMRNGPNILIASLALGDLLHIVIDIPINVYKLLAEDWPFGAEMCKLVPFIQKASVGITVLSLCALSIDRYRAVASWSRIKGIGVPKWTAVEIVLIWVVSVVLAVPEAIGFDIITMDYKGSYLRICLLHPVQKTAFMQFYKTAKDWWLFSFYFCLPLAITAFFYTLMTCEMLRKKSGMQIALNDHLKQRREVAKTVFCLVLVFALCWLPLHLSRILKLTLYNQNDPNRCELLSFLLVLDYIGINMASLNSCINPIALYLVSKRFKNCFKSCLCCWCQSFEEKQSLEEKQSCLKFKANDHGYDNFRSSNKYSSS

CCCCCC(O)/C=C/C1C2CC(CO2)C1C/C=C\CCCC(=O)O (stereo not drawn) [U-46619, 9,11-dideoxy-9α,11α-methanoepoxy-prosta-5Z,13E-dien-1-oic acid]
response to the test concentration (about 10 times EC50) normalized to saturating concentration ([1]; intact cells): full response | response to the test concentration normalized to saturating concentration ([1]; saponin-permeabilized cells): 59% ± 1

4-Ala endothelin-1 (peptide)
BRET-based Gαq biosensor activation in HEK293T cells, concentration-response to 4-Ala ET-1: change of agonist potency in saponin-permeabilized cells with 1 µM GTP against intact cells (Figure 4F) [2]: 15 fold

CCCCC[C@H](O)/C=C/[C@H]1[C@H](O)CC(=O)[C@@H]1C/C=C\CCCC(=O)O [PGE2, (Z)-7-[(1R,2R,3R)-3-hydroxy-2-[(E,3S)-3-hydroxyoct-1-enyl]-5-oxocyclopentyl]hept-5-enoic acid]
response to the test concentration normalized to saturating concentration [3]: about 51% ± 6 | activation at 0.3 µM ([4]; HEK293, read-out: normalized response to 10 times EC50): 53% | response to 10 times EC50 ([4]; saponin-permeabilized cells, internal buffer supplemented with 5 mM ATP and 25 µM GTP): 56% ± 1 | response to the test concentration normalized to saturating concentration ([4]; saponin-permeabilized cells, internal buffer, 300 nM PGE2, reference 20 µM PGE2): 56% ± 1

CCCCCCCCCCCCC/C=C/[C@@H](O)[C@@H](N)COP(=O)(O)O [S1P, Sphingosine-1-phosphate]
EC50 ([5]; intact HEK293T cells): 28.2 nM | EC50 [5, 8]: 0.55 nM

CCCCC[C@H](O)/C=C/[C@H]1C(=O)C[C@H](O)[C@@H]1C/C=C\CCCC(=O)O [PGD2, (Z)-7-[(1R,2R,5S)-5-hydroxy-2-[(E,3S)-3-hydroxyoct-1-enyl]-3-oxocyclopentyl]hept-5-enoic acid]
response to the agonist ([6]; intact cells): strong response | response to the agonist ([6]; membrane fragments): almost no response | EC50 ([7]; intact HEK293T cells): 0.562 nM | EC50 [7, 8]: 20.4 nM
